Reference: patent US20170274014A1, “COMBINATIONS OF LOW, IMMUNE ENHANCING, DOSES OF MTOR INHIBITORS AND CARS” (Novartis AG, priority 2014, published 2017)
Read-outs that look alike come from different tables or passages of the source.

What was measured:
[1] = tested on: A/H1N1/California/07/2009 influenza; experiment: Anti-A/H1N1/California/07/2009 influenza IgG and IgM levels in serum before and after vaccination; format: in vivo, human; conditions: all p values >0.05 by Kruskal-Wallis rank sum test
Experimental: FIGS. 4A and 4B are graphic representations of IgG and IgM levels before and after influenza vaccination. Levels of anti-A/H1N1/California/07/2009 influenza IgG and IgM were measured in serum obtained from subjects before and 4 weeks post influenza vaccination.

[2] = tested on: H1N1 A/California/07/2009; experiment: Hemagglutination inhibition titers after seasonal influenza vaccination, A/H1N1 vaccine strain; format: in vivo, human; conditions: for HI GMT A/H1N1, Baseline: 2 weeks prior to influenza vaccination; for HI GMT A/H1N1, Week 4: 4 weeks after influenza vaccination
Experimental: The trial was observer-blind because the placebo in the RAD001 0.5 mg daily and 20 mg weekly cohorts differed slightly from the RAD001 tablets in those cohorts. […] The treatment duration for all cohorts was 6 weeks during which time subjects underwent safety evaluations in the clinic every 2 weeks. After subjects had been dosed for 4 weeks, RAD001 steady state levels were measured pre-dose and at one hour post dose. After completing the 6 week course of study drug, subjects were given a 2 week drug free break to reverse any possible RAD001-induced immunosuppression, and then were given a 2012 seasonal influenza vaccination (Agrippal®, Novartis Vaccines and Diagnostics, Siena, Italy) containing the strains H1N1 A/California/07/2009, H3N2 A/Victoria/210/2009, B/Brisbane/60/2008. Four weeks after influenza vaccination, subjects had serum collected for influenza titer measurements. Antibody titers to the 3 influenza vaccine strains as well as to 2 heterologous strains (A/H1N1 strain A/New Jersey/8/76 and A/H3N2 strain A/Victoria/361/11) were measured by standard hemagglutination inhibition assay (Kendal, A P et al. (1982) Concepts and procedures for laboratory-based influenza surveillance. Atlanta: Centers for Disease Control and Prevention B17-B35). Levels of IgG and IgM specific for the A/H1N1/California/07/2009 were measured in serum samples taken before and 4 weeks after influenza vaccination as described previously (Spensieri, F. et al. (2013) Proc. Natl. Acad. Sci. USA 110:14330-14335). Results were expressed as fluorescence intensity.
The primary analysis of geometric mean titer ratios was done using a normal Bayesian regression model with non-informative priors. This model was fitted to each antibody titer on the log scale. The primary outcome in each model was the Day 84 measurement. The Day 63 measurement was included in the outcome vector. The model fitted using SAS 9.2 proc mixed with the prior statement. The covariance structure of the matrix was considered as unstructured (option type=UN). A flat prior was used. For the secondary analysis of seroconversion rates, logistic regression was used.
The ability of RAD001 to improve immune function in elderly volunteers was evaluated by measuring the serologic response to the 2012 seasonal influenza vaccine. The hemagglutination inhibition (HI) geometric mean titers (GMT) to each of the 3 influenza vaccine strains at baseline and 4 weeks after influenza vaccination are provided in Table 6. The primary analysis variable was the HI GMT ratio (4 weeks post vaccination/baseline).
Rates of seroconversion 4 weeks after influenza vaccination were also evaluated. Seroconversion was defined as the change from a negative pre-vaccination titer (i.e., HI titer <1:10) to post-vaccination HI titer ≧1:40 or at least 4-fold increase from a non-negative (≧1:10) pre-vaccination HI titer.

[3] = tested on: A/H3N2 strain A/Victoria/361/11; experiment: Hemagglutination inhibition titers to heterologous A/H3N2 strain not in the vaccine; format: in vivo, human
[4] = tested on: 3 influenza vaccine strains; parameters: species or system human; conditions: in vivo
huCART19 cells = experiment: 4 day co-culture proliferation assay of CART cells with NALM6 target cells; format: cell-based, human; conditions: 4 day co-culture with NALM6, 1:1
[5] = PK analysis of RAD001 in blood of tumor bearing NSG mice; format: in vivo; conditions: for concentration at 24 h: mouse, whole blood
Experimental: RAD001 dosing: A concentrated micro-emulsion of 50 mg equal to 1 mg RAD001 was formulated and then resuspended in D5W (dextrose 5% in water) at the time of dosing. Mice were orally dosed daily (via oral gavage) with 200 μl of the desired doses of RAD001.
PK analysis: Mice were dosed daily with RAD001 starting 7 days post tumor implantation. Dosing groups were as follows: 0.3 mg/kg, 1 mg/kg, 3 mg/kg, and 10 mg/kg. Mice were bled on days 0 and 14 following the first and last dose of RAD001, at the following time points for PK analysis: 15 minutes, 30 minutes, 1 hour, 2 hours, 4 hours, 8 hours, 12 hours, and 24 hours.

huCAR19 CAR T cells = experiment: CAR T cell expansion in vivo in NSG mice with NALM6-luc tumors (FACS); conditions: lowest doses of RAD001, daily oral; more evident and prolonged with CD4+ than CD8+ CAR T cells
[6] = human, in vivo
[7] = in vivo
pneumococcal serotypes = conditions: all 3 RAD cohorts; 7 of 23 serotypes measured
[8] = tested on: CAR-expressing, transduced T cells; experiment: CART co-culture with NALM6 cells in presence of RAD001; conditions: low doses of RAD001, 4 days
[9] = elderly subjects
[10] = tested on: humanized CD19 CART cells; conditions: RAD001 0.003 mg/kg daily with huCTL019; compared with normal level of huCAR19 proliferation

## CO[C@H]1C[C@@H]2CC[C@@H](C)[C@@](O)(O2)C(=O)C(=O)N2CCCC[C@H]2C(=O)O[C@H]([C@H](C)C[C@@H]2CC[C@@H](OCCO)[C@H](OC)C2)CC(=O)[C@H](C)/C=C(\C)[C@@H](O)[C@@H](OC)C(=O)[C@H](C)C[C@H](C)/C=C/C=C/C=C/1C [RAD001, (1R,9S,12S,15R,16E,18R,19R,21R,23S,24E,26E,28E,30S,32S,35R)-1,18-dihydroxy-12-{(1R)-2-[(1S,3R,4R)-4-(2-hydroxyethoxy)-3-methoxycyclohexyl]-1-methylethyl}-19,30-dimethoxy-15,17,21,23,29,35-hexamethyl-11,36-dioxa-4-aza-tricyclo[30.3.1.04,9]hexatriaconta-16,24,26,28-tetraene-2,3,10,14,20-pentaone]
[1]
  change from baseline to 4 weeks post vaccination in anti-H1N1 influenza IgG and IgM levels, RAD001 versus placebo cohorts: No significant difference
[2]; 0.5 mg daily, N = 50
  HI GMT ratio A/H1N1 (week 4 post vaccination/baseline): 2.6
  HI GMT A/H1N1, Baseline: 102.8
  HI GMT A/H1N1, Week 4: 190.2
[2]; 5 mg weekly, N = 49
  HI GMT ratio A/H1N1 (week 4 post vaccination/baseline): 2.5
  HI GMT A/H1N1, Baseline: 84.2
  HI GMT A/H1N1, Week 4: 198.73
[2]; 20 mg weekly, N = 49
  HI GMT ratio A/H1N1 (week 4 post vaccination/baseline): 1.8
  HI GMT A/H1N1, Baseline: 90.1
  HI GMT A/H1N1, Week 4: 129.7
[2]; Intention to Treat Population, 0.5 mg, N = 48
  Percent of subjects with seroconversion to influenza H1N1 4 weeks after vaccination: 27%
[2]; Intention to Treat Population, 5 mg, N = 49
  Percent of subjects with seroconversion to influenza H1N1 4 weeks after vaccination: 27%
[2]; Intention to Treat Population, 20 mg, N = 48
  Percent of subjects with seroconversion to influenza H1N1 4 weeks after vaccination: 17%
[2]; Subjects with Baseline Titers <=40, 0.5 mg
  Percent of subjects with seroconversion to influenza H1N1 4 weeks after vaccination: 42%
[2]; Subjects with Baseline Titers <=40, 5 mg
  Percent of subjects with seroconversion to influenza H1N1 4 weeks after vaccination: 45%
[2]; Subjects with Baseline Titers <=40, 20 mg
  Percent of subjects with seroconversion to influenza H1N1 4 weeks after vaccination: 36%
[3]; 0.5 mg daily
  Percentage of subjects who seroconvert to heterologous A/H3N2 strain A/Victoria/361/11 4 weeks after seasonal influenza vaccination: 38%
[3]; 5 mg weekly, * p < 0.05 vs placebo
  Percentage of subjects who seroconvert to heterologous A/H3N2 strain A/Victoria/361/11 4 weeks after seasonal influenza vaccination: 39%*
[3]; 20 mg weekly, * p < 0.05 vs placebo
  Percentage of subjects who seroconvert to heterologous A/H3N2 strain A/Victoria/361/11 4 weeks after seasonal influenza vaccination: 40%*
[3]; RAD001 vs placebo cohorts
  Increase in the HI GMT ratio for the heterologous strain: higher in the RAD001 as compared to placebo cohorts
[3]; pooled RAD001 cohorts, versus 20% for placebo, p=0.007
  H3N2 heterologous strain seroconversion rate: 39%
[4]
  Primary endpoint of the study (HI GMT ratio >=1.2-fold relative to placebo in at least 2 of 3 strains): met the GMT primary endpoint
  RAD001-associated increase in influenza titers in subgroup analysis: greater RAD001-associated increase in titers than did the ITT population
huCART19 cells
  RAD001 concentration in whose presence huCART19 cells expanded (lesser extent at higher concentrations): less than 0.016 nM
[5]; NSG, lowest dose tested (0.3 mg/kg) oral daily, day 0 and day 14, read-out: RAD001 concentration in the blood 24 hours after dosing
  concentration at 24 h: > 10 nM
[5]; daily oral dosing, day 0 and day 14 PK
  Stability in the blood of tumor bearing mice: fairly stable
[5]; 0.3 mg/kg, NSG mice, daily oral dosing, read-out: Concentration of RAD001 24 hours after the final dose
  concentration at 24 h: > 10 nM
huCAR19 CAR T cells
  Proliferation of the CAR T cells in vivo: enhanced proliferation
[6]
  Deaths during the study: No deaths occurred
  Incidence of treatment-related AE: Blood cholesterol increased: 2 (3.8%) n (%)
  Most common RAD001-related AE: mouth ulcer
  Tolerability: well tolerated
[7]; human
  Trough level of the immunization study regimens relative to approved transplant and oncology regimens: 3-20 fold lower
[7]
  Average RAD001 trough level: below detection limits
Pneumococcal serotypes
  Pneumococcal serotypes with increased antibody titers compared to placebo: 6/7
[8]
  proliferation of CAR-expressing, transduced T cells: enhanced
[9]
  exercise and energy: increases in exercise and energy
[10]
  CAR T cell proliferation in vivo (CD4+ and CD8+ CAR T cells): enhancement in CAR T cell proliferation
